The values that follow come from US20070021439A1, “Methods of reducing risk of infection from pathogens with soluble amide and ester pyrazinoylguanidine sodium channel blockers” (Parion Sciences, Inc., priority 2005, published 2007).

Structures can show the parent of a compound that is named as a salt. Where two headings read alike, the source gives them in different places. A value given as a limit tells only on which side of the number the result lay.

A short description of data set [1]: Solubility of compounds in sodium chloride solution. Format: physicochemical. The following applies: saline or isotonic, thermodynamic from solid, ambient temperature. Here is the method:
Compound solubility was measured in water, 0.12 or 0.9% sodium chloride solution at ambient temperature for up to 10 days. Using a UV/Visable Spectrophotometer and applying Beer's Law with the calculated extinction coefficient of amiloride (18.6 mM, absorbance values at 362 nm taken from D. Mazzo 1986) the free base concentration in solution was calculated at specified time points. All samples were stored for the duration of the experiment in a single/closure system consisting of glass vials with a stopper-top closure. The vials were maintained at ambient temperature, in the dark, and in the upright position. Compound stability was measured using reverse phase high performance liquid chromatography on the final filtered pulled sample (day 10).
Table 2 gives the solubility in saline of selected amide bis methane sulfonic acid salts and compares them to the mono addition methane sulfonic acid salt of PSA 9714.

Data set [2] deals with T1, ENaC (epithelial sodium channel) (Canis lupus familiaris, UniProt A0A8I3MKE6+A0A8I3Q679+Q95165).
T1 construct: endogenous in cells; host or cells: primary canine bronchial (airway) epithelial cells cultured at air-liquid interface, mounted in Ussing chambers
T1 sequence (A0A8I3Q679 1-649): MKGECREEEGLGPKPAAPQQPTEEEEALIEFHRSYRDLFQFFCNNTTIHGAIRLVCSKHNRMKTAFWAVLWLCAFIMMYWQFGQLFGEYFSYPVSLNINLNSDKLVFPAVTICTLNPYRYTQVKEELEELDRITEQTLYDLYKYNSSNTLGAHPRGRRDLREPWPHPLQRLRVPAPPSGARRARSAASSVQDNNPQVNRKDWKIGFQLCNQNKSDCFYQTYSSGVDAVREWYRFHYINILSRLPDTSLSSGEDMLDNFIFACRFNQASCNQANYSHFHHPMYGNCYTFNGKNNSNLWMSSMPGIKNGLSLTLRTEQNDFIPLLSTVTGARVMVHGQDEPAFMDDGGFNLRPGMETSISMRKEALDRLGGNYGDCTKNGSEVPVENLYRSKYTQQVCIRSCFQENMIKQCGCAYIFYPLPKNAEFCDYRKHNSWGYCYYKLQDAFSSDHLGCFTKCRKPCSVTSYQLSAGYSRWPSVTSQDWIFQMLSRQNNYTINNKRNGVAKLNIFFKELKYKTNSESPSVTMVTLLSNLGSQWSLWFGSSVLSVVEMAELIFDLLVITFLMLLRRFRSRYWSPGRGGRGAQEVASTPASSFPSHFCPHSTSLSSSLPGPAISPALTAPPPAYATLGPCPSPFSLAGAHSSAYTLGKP
T1 sequence (Q95165 1-641): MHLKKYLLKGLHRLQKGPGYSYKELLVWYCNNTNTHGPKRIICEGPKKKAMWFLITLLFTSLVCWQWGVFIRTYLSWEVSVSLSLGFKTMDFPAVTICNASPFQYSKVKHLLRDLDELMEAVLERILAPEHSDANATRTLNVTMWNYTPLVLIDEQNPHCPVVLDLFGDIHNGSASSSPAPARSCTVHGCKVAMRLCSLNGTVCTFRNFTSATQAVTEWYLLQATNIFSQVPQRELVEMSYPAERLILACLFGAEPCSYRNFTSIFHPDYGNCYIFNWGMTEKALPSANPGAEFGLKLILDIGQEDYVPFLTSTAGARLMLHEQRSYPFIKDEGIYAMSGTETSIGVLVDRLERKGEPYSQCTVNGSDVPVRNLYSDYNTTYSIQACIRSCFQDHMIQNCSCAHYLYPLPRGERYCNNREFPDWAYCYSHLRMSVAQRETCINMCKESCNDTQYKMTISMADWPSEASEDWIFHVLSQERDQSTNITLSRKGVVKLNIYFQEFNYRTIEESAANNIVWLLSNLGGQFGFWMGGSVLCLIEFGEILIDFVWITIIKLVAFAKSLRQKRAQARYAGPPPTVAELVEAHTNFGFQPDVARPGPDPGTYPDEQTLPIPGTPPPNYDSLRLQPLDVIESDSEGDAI
T1 sequence (A0A8I3MKE6 1-646): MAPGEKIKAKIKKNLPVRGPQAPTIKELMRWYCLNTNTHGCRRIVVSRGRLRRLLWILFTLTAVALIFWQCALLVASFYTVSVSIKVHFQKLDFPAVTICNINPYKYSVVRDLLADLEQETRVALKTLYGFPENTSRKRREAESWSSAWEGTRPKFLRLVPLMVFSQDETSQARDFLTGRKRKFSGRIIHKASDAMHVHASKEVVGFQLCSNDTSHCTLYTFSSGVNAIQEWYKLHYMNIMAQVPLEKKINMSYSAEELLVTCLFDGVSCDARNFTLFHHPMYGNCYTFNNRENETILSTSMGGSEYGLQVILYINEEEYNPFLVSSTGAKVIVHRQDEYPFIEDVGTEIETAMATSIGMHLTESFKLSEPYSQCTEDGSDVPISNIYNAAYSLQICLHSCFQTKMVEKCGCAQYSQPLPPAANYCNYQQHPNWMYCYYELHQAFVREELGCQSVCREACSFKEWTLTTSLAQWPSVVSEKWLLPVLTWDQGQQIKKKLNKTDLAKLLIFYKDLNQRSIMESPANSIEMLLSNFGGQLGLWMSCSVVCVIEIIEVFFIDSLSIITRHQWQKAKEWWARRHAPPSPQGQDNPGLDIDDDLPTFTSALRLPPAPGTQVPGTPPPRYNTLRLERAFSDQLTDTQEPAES
Kind of data set: Epithelial sodium channel blocking activity (short circuit current, Ussing chambers) in canine bronchial epithelium. Format: cell-based. The following applies: for Fold Amiloride (PSA4022 = 100): relative potency, PSA4022 = 100, using IC50 from PSA4022 in same run. Here is the method: One assay used to assess mechanism of action and/or potency of the compounds of Formula I involves the determination of lumenal drug inhibition of airway epithelial sodium currents measured under short circuit current (ISC) using airway epithelial monolayers mounted in Ussing chambers. Cells obtained from freshly excised human, dog or sheep airways are seeded onto porous 0.4 micron Snapwell™ Inserts (CoStar), cultured at air-liquid interface (ALI) conditions in hormonally defined media, and assayed for sodium transport activity (ISC in μA/cm^2) while bathed in Krebs Bicarbonate Ringer (KBR) in Ussing chambers. All test drug additions are to the lumenal bath with half-log dose addition protocols (from 1×10^−11 M to 3×10^−5 M), and the cumulative change in ISC (inhibition) recorded. All drugs are prepared in dimethyl sulfoxide as stock solutions at a concentration of 1×10^−2 M and stored at −20° C. Six preparations are typically run in parallel; one preparation per run incorporates a positive control. All data from the voltage clamps are collected via a computer interface and analyzed off-line.
Dose-effect relationships for all compounds are considered and analyzed by the Prism 3.0 program. EC50 values, maximal effective concentrations are calculated and compared to positive controls.
Utilizing the tests set forth above, Table 3 summaries the ENaC blocking ability of some of the amides of this invention when assayed in canine bronchial epithelium.

[3] abbreviates: 0.12% sodium chloride solution, 0.12% NaCl solution, read-out: S1 = Solubility in 0.12% NaCl Solution.

In general, melting point refers to the temperature, or range, at which the solid turns liquid. Consider `N=C(NCCCCc1ccc(OCC(=O)OCCN2CCCCC2)cc1)NC(=O)c1nc(Cl)c(N)nc1N`, for which the melting point lay in the range of 60 to 62 °C.
`N=C(NCCCCc1ccc(OCC(=O)OCCN)cc1)NC(=O)c1nc(Cl)c(N)nc1N` (as salt: hydrochloride) had a melting point of 66 to 68 °C.
Still for that read-out and setting: in the case of `N=C(NCCCCc1ccc(OCC(=O)OCC2CCNCC2)cc1)NC(=O)c1nc(Cl)c(N)nc1N` (as salt: hydrochloride) it was 100 to 102 °C.
The compound `CN(C)CCCNC(=O)COc1ccc(CCCCNC(=N)NC(=O)c2nc(Cl)c(N)nc2N)cc1` (as salt: methanesulfonate) returned a melting point of 187 to 190 °C.
A word on the solubility: it is the concentration that dissolves in the medium under given conditions. The term IC50 denotes the concentration needed to halve the response being measured. A lower IC50 goes with greater potency. On to `CS(=O)(=O)O.CS(=O)(=O)O.N=C(NCCCCc1ccc(C(=O)N2CCNCC2)cc1)NC(=O)c1nc(Cl)c(N)nc1N` [PSA23607, N-(3,5-Diamino-6-chloropyrazine-2-carbonyl)-N′-{4-[4-(piperazine-1-carbonyl)phenyl]butyl}guanidine bis-methanesulfonate], for which the melting point fell in the range of 122 to 124 °C. Besides, the solubility in data set [1] (0.12% NaCl solution, read-out: S1 = Solubility in 0.12% NaCl Solution) was more than 5000 µg/mL. Moreover, the IC50 in data set [2] was found to be 12.5 ± 0.5 nM.
For the compound `N=C(NCCCCc1ccc(OCC(N)=O)cc1)NC(=O)c1nc(Cl)c(N)nc1N` [compound 9714], the solubility in data set [1] (setting [3]) is less than 100 µg/mL. Moreover, the solubility in data set [1] (0.9% sodium chloride solution (normal saline), 0.9% NaCl solution (normal saline), read-out: S2 = Solubility in 0.9% NaCl Solution (normal Saline)) was less than 100 µg/mL. In addition, in data set [2], the IC50 was found to be 15.2 nM and the “Fold Amiloride (PSA4022 = 100)” value amounted to 62.
On to `N=C(NCCCCc1ccc(OCC(=O)NCCN)cc1)NC(=O)c1nc(Cl)c(N)nc1N` [compound 237778], for which the solubility in data set [1] (setting [3]) is more than 5000 µg/mL. Further, in data set [2], it took 5 ± 2 nM to reach half-maximal inhibition (IC50) and the “Fold Amiloride (PSA4022 = 100)” value is recorded as 146.
